Measured values as given in paper PMC12298351, “Novel 3,19-(N-Phenyl-3-(4-fluorophenyl)-pyrazole) Acetal of Andrographolide Promotes Cell Cycle Arrest and Apoptosis in MDA-MB-231 Breast Cancer Cells” (Pharmaceuticals, 2025).

Columns and labels:
SNB-19 = format: cell-based; conditions: SNB-19, CNS
TK-10 = format: cell-based; conditions: TK-10, Renal
BT-549 = format: cell-based; conditions: BT-549, Breast
CCRF-CEM = conditions: for GI50 / Total growth inhibition (TGI): Leukemia; for CC50: read-out: 50% lethal concentration (LC50), Leukemia
HL-60(TB) = conditions: for GI50 / Total growth inhibition (TGI): Leukemia; for CC50: read-out: 50% lethal concentration (LC50), Leukemia
SR = conditions: for GI50 / Total growth inhibition (TGI): Leukemia; for CC50: read-out: 50% lethal concentration (LC50), Leukemia
EKVX = conditions: for Total growth inhibition (TGI): Non-Small Cell Lung; for GI50: Non-Small-Cell Lung; for CC50: read-out: 50% lethal concentration (LC50), Non-Small Cell Lung
HOP-62 = conditions: for Total growth inhibition (TGI) / CC50: HOP-62, Non-Small Cell Lung; for GI50: HOP-62, Non-Small-Cell Lung; for CC50: read-out: 50% lethal concentration (LC50)
HOP-92 = conditions: for Total growth inhibition (TGI) / CC50: HOP-92, Non-Small Cell Lung; for GI50: HOP-92, Non-Small-Cell Lung; for CC50: read-out: 50% lethal concentration (LC50)
NCI-H226 = conditions: for Total growth inhibition (TGI) / CC50: NCI-H226, Non-Small Cell Lung; for GI50: NCI-H226, Non-Small-Cell Lung; for CC50: read-out: 50% lethal concentration (LC50)
NCI-H460 = conditions: for Total growth inhibition (TGI) / CC50: NCI-H460, Non-Small Cell Lung; for GI50: NCI-H460, Non-Small-Cell Lung; for CC50: read-out: 50% lethal concentration (LC50)
HCC-2998 = conditions: HCC-2998, Colon
KM12 = conditions: KM12, Colon
SW-620 = conditions: SW-620, Colon; for CC50: read-out: 50% lethal concentration (LC50)
SF-268 = conditions: SF-268, CNS; for CC50: read-out: 50% lethal concentration (LC50)
SF-295 = conditions: SF-295, CNS; for CC50: read-out: 50% lethal concentration (LC50)
SNB-75 = conditions: SNB-75, CNS; for CC50: read-out: 50% lethal concentration (LC50)
MDA-MB-435 = conditions: MDA-MB-435, Melanoma; for CC50: read-out: 50% lethal concentration (LC50)
SK-MEL-2 = conditions: SK-MEL-2, Melanoma
SK-MEL-5 = conditions: SK-MEL-5, Melanoma; for CC50: read-out: 50% lethal concentration (LC50)
IGROV1 = conditions: IGROV1, Ovarian; for CC50: read-out: 50% lethal concentration (LC50)
786-0 = conditions: 786-0, Renal
A498 = conditions: A498, Renal; for CC50: read-out: 50% lethal concentration (LC50)
ACHN = conditions: for GI50 / Total growth inhibition (TGI): Renal; for CC50: read-out: 50% lethal concentration (LC50), Renal
CAKI-1 = conditions: CAKI-1, Renal; for CC50: read-out: 50% lethal concentration (LC50)
RXF 393 = conditions: RXF 393, Renal; for CC50: read-out: 50% lethal concentration (LC50)
SN12C = conditions: for GI50 / Total growth inhibition (TGI): Renal; for CC50: read-out: 50% lethal concentration (LC50), Renal
UO-31 = conditions: UO-31, Renal; for CC50: read-out: 50% lethal concentration (LC50)
MCF7 = conditions: MCF7, Breast; for CC50: read-out: 50% lethal concentration (LC50)
MDA-MB-231 = conditions: for GI50: MDA-MB-231, Breast; for Total growth inhibition (TGI) / CC50: MDA-MB-231/ATCC, Breast; for CC50: read-out: 50% lethal concentration (LC50)
HS 578T = conditions: for CC50: read-out: 50% lethal concentration (LC50), Breast
T-47D = conditions: for GI50 / Total growth inhibition (TGI): Breast; for CC50: read-out: 50% lethal concentration (LC50), Breast
[1] = read-out: 50% lethal concentration (LC50)

## C=C1CCC2C3(C)COC(c4cn(-c5ccccc5)nc4-c4cccc([N+](=O)[O-])c4)OC3CCC2(C)C1CC=C1C(=O)OCC1O (centres unmarked) [1b]
SNB-19
  GI50: 3.64 µM
  Total growth inhibition (TGI): 15 µM
SNB-19; [1]
  CC50: 60 µM
TK-10
  GI50: 2.22 µM
  Total growth inhibition (TGI): 5.82 µM
TK-10; [1]
  CC50: > 100 µM
BT-549
  GI50: 1.94 µM
  Total growth inhibition (TGI): 3.8 µM
CCRF-CEM
  GI50: 1.14 µM
  Total growth inhibition (TGI): 5.01 µM
  CC50: > 100 µM
HL-60(TB)
  GI50: 1.73 µM
  Total growth inhibition (TGI): > 100 µM
  CC50: > 100 µM
SR
  GI50: 3.46 µM
  Total growth inhibition (TGI): > 100 µM
  CC50: > 100 µM
EKVX
  Total growth inhibition (TGI): 7.98 µM
  GI50: 2.75 µM
  CC50: > 100 µM
HOP-62
  Total growth inhibition (TGI): 12.4 µM
  GI50: 3.15 µM
  CC50: > 100 µM
HOP-92
  Total growth inhibition (TGI): 3.64 µM
  GI50: 1.86 µM
  CC50: 7.11 µM
NCI-H226
  Total growth inhibition (TGI): 6.59 µM
  GI50: 2.38 µM
  CC50: > 100 µM
NCI-H460
  Total growth inhibition (TGI): 4.8 µM
  GI50: 2.27 µM
  CC50: 11.3 µM
HCC-2998
  GI50: 1.92 µM
  Total growth inhibition (TGI): 3.53 µM
HCC-2998; [1]
  CC50: 6.48 µM
KM12
  GI50: 1.99 µM
  Total growth inhibition (TGI): 4.38 µM
SW-620
  GI50: 2.21 µM
  Total growth inhibition (TGI): 5.13 µM
  CC50: > 100 µM
SF-268
  GI50: 7.65 µM
  Total growth inhibition (TGI): > 100 µM
  CC50: > 100 µM
SF-295
  GI50: 1.68 µM
  Total growth inhibition (TGI): 3.19 µM
  CC50: 6.05 µM
SNB-75
  GI50: 7.34 µM
  Total growth inhibition (TGI): 50 µM
  CC50: > 100 µM
MDA-MB-435
  GI50: 3.03 µM
  Total growth inhibition (TGI): 18.3 µM
  CC50: > 100 µM
SK-MEL-2
  GI50: 1.78 µM
  Total growth inhibition (TGI): 3.51 µM
SK-MEL-2; [1]
  CC50: 6.94 µM
SK-MEL-5
  GI50: 1.63 µM
  Total growth inhibition (TGI): 3 µM
  CC50: 5.53 µM
IGROV1
  GI50: 2.08 µM
  Total growth inhibition (TGI): 4.27 µM
  CC50: 8.76 µM
786-0
  GI50: 3.04 µM
  Total growth inhibition (TGI): 10.3 µM
786-0; [1]
  CC50: > 100 µM
A498
  GI50: 1.9 µM
  Total growth inhibition (TGI): 45.4 µM
  CC50: > 100 µM
ACHN
  GI50: 1.89 µM
  Total growth inhibition (TGI): 3.62 µM
  CC50: 6.94 µM
CAKI-1
  GI50: 2.81 µM
  Total growth inhibition (TGI): > 100 µM
  CC50: > 100 µM
RXF 393
  GI50: 1.62 µM
  Total growth inhibition (TGI): 3.2 µM
  CC50: 6.32 µM
SN12C
  GI50: 2.93 µM
  Total growth inhibition (TGI): 10.3 µM
  CC50: > 100 µM
UO-31
  GI50: 1.82 µM
  Total growth inhibition (TGI): 5.46 µM
  CC50: 35.7 µM
MCF7
  GI50: 2.64 µM
  Total growth inhibition (TGI): > 100 µM
  CC50: > 100 µM
MDA-MB-231
  GI50: 1.84 µM
  Total growth inhibition (TGI): 3.44 µM
  CC50: 6.44 µM
HS 578T; Breast
  GI50: 2.69 µM
HS 578T
  CC50: > 100 µM
T-47D
  GI50: 1.76 µM
  Total growth inhibition (TGI): 5.02 µM
  CC50: > 100 µM

## C=C1CCC2C3(C)COC(c4cn(-c5ccccc5)nc4-c4ccc(C)cc4)OC3CCC2(C)C1CC=C1C(=O)OCC1O (centres unmarked) [1i]
SNB-19
  GI50: 1.36 µM
TK-10
  GI50: 1.33 µM
BT-549
  GI50: 1.2 µM
  Total growth inhibition (TGI): 3.02 µM
CCRF-CEM
  GI50: 8.4 µM
  Total growth inhibition (TGI): > 100 µM
  CC50: > 100 µM
HL-60(TB)
  GI50: 2.17 µM
  Total growth inhibition (TGI): > 100 µM
  CC50: > 100 µM
SR
  GI50: 2.74 µM
  Total growth inhibition (TGI): > 100 µM
  CC50: > 100 µM
EKVX
  Total growth inhibition (TGI): 4.96 µM
  GI50: 2.13 µM
  CC50: > 100 µM
HOP-62
  Total growth inhibition (TGI): 4.44 µM
  GI50: 2.12 µM
  CC50: 9.27 µM
HOP-92
  Total growth inhibition (TGI): 3.14 µM
  GI50: 1.43 µM
  CC50: 6.88 µM
NCI-H226
  Total growth inhibition (TGI): 2.95 µM
  GI50: 1.47 µM
  CC50: 5.92 µM
NCI-H460
  Total growth inhibition (TGI): 3.56 µM
  GI50: 1.83 µM
  CC50: 6.91 µM
HCC-2998
  GI50: 1.63 µM
  Total growth inhibition (TGI): 3.06 µM
KM12
  GI50: 3.01 µM
  Total growth inhibition (TGI): 7.93 µM
SW-620
  GI50: 5.42 µM
  CC50: > 100 µM
SF-268
  GI50: 2.61 µM
  Total growth inhibition (TGI): 7.58 µM
  CC50: 55.4 µM
SF-295
  GI50: 1.58 µM
  Total growth inhibition (TGI): 2.96 µM
  CC50: 5.54 µM
SNB-75
  GI50: 1.71 µM
  Total growth inhibition (TGI): 2.99 µM
  CC50: 6.55 µM
MDA-MB-435
  GI50: 1.61 µM
  Total growth inhibition (TGI): 3.31 µM
  CC50: 6.79 µM
SK-MEL-2
  GI50: 1.79 µM
  Total growth inhibition (TGI): 3.28 µM
SK-MEL-5
  GI50: 1.59 µM
  Total growth inhibition (TGI): 2.96 µM
  CC50: 5.49 µM
IGROV1
  GI50: 3.95 µM
  Total growth inhibition (TGI): 12.5 µM
  CC50: > 100 µM
786-0
  GI50: 1.77 µM
  Total growth inhibition (TGI): 3.69 µM
A498
  GI50: 4.03 µM
  Total growth inhibition (TGI): 15.8 µM
  CC50: 48.8 µM
ACHN
  GI50: 1.83 µM
  Total growth inhibition (TGI): 3.5 µM
  CC50: 6.67 µM
CAKI-1
  GI50: 1.71 µM
  Total growth inhibition (TGI): 3.37 µM
  CC50: 6.64 µM
RXF 393
  GI50: 1.49 µM
  Total growth inhibition (TGI): 2.97 µM
  CC50: 5.92 µM
SN12C
  GI50: 1.66 µM
  Total growth inhibition (TGI): 3.44 µM
  CC50: 7.15 µM
UO-31
  GI50: 1.77 µM
  Total growth inhibition (TGI): 2.67 µM
  CC50: 5.36 µM
MCF7
  GI50: 1.57 µM
  Total growth inhibition (TGI): 4.6 µM
  CC50: 5.4 µM
MDA-MB-231
  GI50: 1.7 µM
  Total growth inhibition (TGI): 3.28 µM
  CC50: 6.33 µM
HS 578T; Breast
  GI50: 1.85 µM
  Total growth inhibition (TGI): 3.41 µM
HS 578T
  CC50: 6.28 µM
T-47D
  GI50: 1.14 µM
  Total growth inhibition (TGI): 3.55 µM
  CC50: > 100 µM
